Experimental data from patent US7989008B2, “Cosmetic preparations designed to reduce unsightly cellulite” (Menarini Industrie Farmaceutiche Riunite S.R.L., priority 2007, dated 2011).

test system: tissue affected by cellulite (surface temperature of the skin); experiment: Liquid-crystal thermography, indirect instrumental assessment of treatment efficacy; format: in vivo, women; conditions: after repeated treatment
Excerpt: Liquid-crystal thermography was used to conduct an indirect instrumental assessment of the efficacy of the treatment. On the basis of the surface temperature, this technique distinguishes between normal adipose tissue and tissue affected by cellulite, in which the reduced blood flow causes progressive cooling of the skin, proportional to the severity of the cosmetic problem. After repeated treatment with compound (I), the difference in temperature between the normal skin area (unaffected by cellulite) and the affected area had reduced considerably, about 70% of the temperature reduction previously observed having been eliminated. The effects of treatment with compounds A and B were evaluated for comparison purposes.

SMILES | temperature difference between normal skin area and area affected by cellulite eliminated
CC1(C)C(=O)NN=C1c1ccc(NC2=C(Cc3ccc(F)cc3)C(=O)CCC2)cc1F [Compound B, 5-{4-[2-(4-fluoro-benzyl)-3-oxo-cyclohex-1-enylamine]-2-fluoro-phenyl}-4,4-dimethyl-2,4-dihydro-pyrazol-3-one] | ~50%
CC1(C)C(=O)NN=C1c1ccc(NC2=C(Cc3cccc(C#N)c3)C(=O)CCC2)c(F)c1F [Compound A, 3-[2-[4-(4,4-dimethyl-5-oxo-4,5-dihydro-1-H-pyrazol-3-yl)-2,3-difluoro-phenylamine]-6-oxocyclohex-1-enylmethyl]-benzonitrile] | ~50%
CC1(C)C(=O)NN=C1c1ccc(NC2=C(Cc3ccc(F)cc3)C(=O)CCC2)c(F)c1F [Compound of formula (I), 5-{4-[2-(4-fluoro-benzyl)-3-oxo-cyclohex-1-enylamine]-2,3-difluoro-phenyl}-4,4-dimethyl-2,4-dihydropyrazol-3-one] | about 70%
